The text below walks through data of ChEMBL document CHEMBL3045807, “Synthesis of novel pyrazolyl tetrazoles as selective COX-2 inhibitors” (Med Chem Res, 2013).

Usually inhibition in vivo stands for the change of the read-out against control, counted positive when it falls.

Data set [1] deals with Rattus norvegicus. Description: Ulcerogenic activity against fasted albino Rattus norvegicus (rat) assessed as ulcer index at 100 mg/kg, po administered QD for 3 days measured on day 4. It is filed as toxicity, organism-based. The arrangement: dose 100 mg/kg, route oral. Conditions: in vivo, 72 h.
The species named for the next data set is Ovis aries. The data set is described as follows: Selectivity ratio of IC50 for Ovis aries (sheep) COX2 to IC50 for ovine COX1.
The subject of data set [2] is Rattus norvegicus. The data set is described as follows: Ulcerogenic activity against fasted albino Rattus norvegicus (rat) assessed as ulcer index at 50 mg/kg, po administered QD for 3 days measured on day 4. The arrangement: dose 50 mg/kg, route oral. It is filed as toxicity, organism-based. The following applies: in vivo, 72 h.
In data set [3] the test system is Rattus norvegicus. The data set is described as follows: Anti-inflammatory activity in albino Rattus norvegicus (rat) assessed as inhibition of carrageenan-induced paw edema at 20 mg/kg, po administered 1 hr prior to carrageenan-challenge measured at 3 hr relative to control. It is filed as functional. (In general: In the carrageenan paw model, swelling and tenderness develop within hours.)

For data set [4], the system named is Rattus norvegicus. Description: Anti-inflammatory activity in albino Rattus norvegicus (rat) assessed as carrageenan-induced paw edema volume at 20 mg/kg, po administered 1 hr prior to carrageenan-challenge measured at 0.5 hr (reference value: 2.5 +/- 0.02 ml). It is filed as functional.
Data set [5] relates to Rattus norvegicus. Description: Anti-inflammatory activity in albino Rattus norvegicus (rat) assessed as carrageenan-induced paw edema volume at 20 mg/kg, po administered 1 hr prior to carrageenan-challenge measured at 2 hr (reference value: 4.25 +/- 0.07 ml). It is filed as functional.
In data set [6] the test system is Rattus norvegicus. Description: Anti-inflammatory activity in albino Rattus norvegicus (rat) assessed as carrageenan-induced paw edema volume at 20 mg/kg, po administered 1 hr prior to carrageenan-challenge measured at 1 hr (reference value: 3.75 +/- 0.01 ml). It is filed as functional.

Regarding `COc1ccc(-c2nn(-c3ccccc3)cc2-c2nn[nH]n2)cc1`, the UI with Rattus norvegicus [1] was found to be 14.22.
On the same count and under the same terms, for `Clc1ccc(-c2nn(-c3ccccc3)cc2-c2nn[nH]n2)cc1` the value was 13.9.
Consider `Cc1ccc(-c2cc(C(F)(F)F)nn2-c2ccc(S(N)(=O)=O)cc2)cc1` [CELECOXIB], for which, in the data set filed under Ovis aries, the Ratio IC50 amounted to 0.02. In the data set with Rattus norvegicus [2], the UI is 12.51.
On to `O=C([O-])Cc1ccccc1Nc1c(Cl)cccc1Cl.[Na+]` [DICLOFENAC SODIUM], for which the inhibition in vivo at 20 mg/kg in the data set with Rattus norvegicus [3] was 88%. In addition, the Activity was 1.67 mL with Rattus norvegicus [4], 0.25 mL with Rattus norvegicus [5] and 1.15 mL in the data set with Rattus norvegicus [6]. Besides, the UI in the data set with Rattus norvegicus [2] is on record as 17.02.
